The subject of this assay is LPS-stimulated human peripheral blood mononuclear cells (PBMCs). Kind of assay: In vitro inhibition of LPS-stimulated cytokine/chemokine/growth factor production (Milliplex 38-plex). The class given is cell-based. As to conditions: for inhibitory activity on inflammatory cytokines: preliminary study, LPS-stimulated PBMC; for Inhibitory scale (0-5): D1 PBMC, 1 ng/mL LPS, 0 = no or very minimal inhibition, 1 to 2.5 = IFNγ, IL-1 series, IP-10, MCP-1, 3 = TNFα also, above 3 = some T cell cytokines, 5 = all cytokines inhibited; for immunomodulatory response type: approximately 10 μM, stimulatory = signal above 130%, inhibitory = signal below 70% of LPS-stimulated control (no FFA added).

Take `CC/C=C\C/C=C\C/C=C\C/C=C\C/C=C\CCCCCC(=O)O` [DPAn-3, Docosapentaenoic acid n-3]: the “inhibitory activity on inflammatory cytokines” value (fatty acid as primary component or at higher amount in the preparation) is “significant inhibitory activity”. As for Eicosatetraenoic acid [ETA], the “inhibitory activity on inflammatory cytokines” value ([…]) is “significant inhibitory activity”. Regarding ETA [Syn ETA], the immunomodulatory response type result was “both stimulatory and inhibitory responses”. For the same compound, the “inhibitory effect on more than half the analytes” value (30 μM dose, >50% reduction compared to LPS-stimulated control) is given as “strong inhibitory effect”. The “Inhibitory scale (0-5)” value ([…]) worked out at 4.75. Turning to `CC/C=C\C/C=C\C/C=C\C/C=C\C/C=C\CCCCCC(=O)O` [Syn DPA, DPA], the immunomodulatory response type entry is “both stimulatory and inhibitory responses”. In addition, the “Inhibitory scale (0-5)” value (30 μM FFA preparation) stood at 4.0.
